Measurements published in US11053235B2, “Substituted 1,4-dihydropyrimidines for the treatment of HBV infection or HBV-induced diseases” (Janssen Sciences Ireland Unlimited Company, priority 2018, dated 2021).

Experiments:
HBV = experiment: Anti-viral assay in HepG2.2.15 cells: HBV inhibitory activity (HBV DNA in culture medium by q-PCR); format: cell-based; settings: Hepatitis B virus, HepG2.2.15, 144 h, HepG2.2.15 cells, 6 days treatment, HBV DNA in culture medium by q-PCR, highest concentration 10 uM; read-out: EC50
Method in brief: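 HBV DNA released into the medium was measured by q-PCR after 6-day compound exposure of HepG2.2.15 cells (40,000/well, 2% FBS, one mid-course medium change). Eight 3-fold dilutions, highest 10 uM; EC50 derived by curve fitting.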

[1] = Cytotoxicity determination in HepG2.2.15 cells (CCK-8); format: cell-based; settings: human, 6 days treatment, CCK-8, highest concentration 100 uM
Method in brief: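 CC50 derived from CCK-8 absorbance (450 nm, 630 nm reference) after 2.5 h incubation at 37 °C. Before that, HepG2.2.15 cells (5,000/well, 2% FBS) received an 8-point, 3-fold compound series topping at 100 uM for 6 days, with one mid-treatment medium change.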

Structure (SMILES)	EC50 (HBV)	CC50 at 6 days [1]
CCOC(=O)C1=C(C2CCN(c3cc(O)c(C(=O)O)cn3)CC2)NC(c2nccs2)=NC1c1ccc(F)c(F)c1Cl (single isomer, unassigned) [II-36-B, 6-(4-(6-(2-chloro-3,4-difluorophenyl)-5-(ethoxycarbonyl)-2-(thiazol-2-yl)-3,6-dihydropyrimidin-4-yl)piperidin-1-yl)-4-hydroxynicotinic Acid]	52 nM	8650 nM
CCOC(=O)C1=C(C2CCN(c3cccc(C(=O)O)n3)CC2)NC(c2nccs2)=NC1c1ccc(F)c(F)c1Cl (single isomer, unassigned) [II-37-B, 6-(4-(6-(2-Chloro-3,4-difluorophenyl)-5-(ethoxycarbonyl)-2-(thiazol-2-yl)-3,6-dihydropyrimidin-4-yl)piperidin-1-yl)picolinic Acid]	61 nM	6410 nM
CCOC(=O)C1=C(C2CCN(c3cc(C(=O)O)cc(C(F)(F)F)n3)CC2)NC(c2nccs2)=NC1c1ccc(F)c(F)c1Cl (single isomer, unassigned) [II-38-B, 2-(4-(6-(2-chloro-3,4-difluorophenyl)-5-(ethoxycarbonyl)-2-(thiazol-2-yl)-3,6-dihydropyrimidin-4-yl)piperidin-1-yl)-6-(trifluoromethyl)isonicotinic Acid]	81 nM	3880 nM
CCOC(=O)C1=C(C2CCN(c3cc(C(=O)O)c(C(F)(F)F)cn3)CC2)NC(c2nccs2)=NC1c1ccc(F)c(F)c1Cl (single isomer, unassigned) [II-39-B, 2-(4-(6-(2-Chloro-3,4-difluorophenyl)-5-(ethoxycarbonyl)-2-(thiazol-2-yl)-3,6-dihydropyrimidin-4-yl)piperidin-1-yl)-5-(trifluoromethyl)isonicotinic Acid]	14 nM	5380 nM
CCOC(=O)C1=C(C2CCN(c3nccc(C(=O)O)c3F)CC2)NC(c2nccs2)=NC1c1ccc(F)c(F)c1Cl (single isomer, unassigned) [II-40-B, 2-(4-(6-(2-Chloro-3,4-difluorophenyl)-5-(ethoxycarbonyl)-2-(thiazol-2-yl)-3,6-dihydropyrimidin-4-yl)piperidin-1-yl)-3-fluoroisonicotinic Acid]	9.1 nM	8370 nM
CCOC(=O)C1=C(C2CCN(c3cc(C(=O)O)ccn3)CC2)NC(c2nccs2)=NC1c1ccc(F)c(F)c1Cl (single isomer, unassigned) [II-41-B, 2-(4-(6-(2-Chloro-3,4-difluorophenyl)-5-(ethoxycarbonyl)-2-(thiazol-2-yl)-3,6-dihydropyrimidin-4-yl)piperidin-1-yl)isonicotinic Acid]	5.2 nM	10200 nM
CCOC(=O)C1=C(C2CCN(c3ccc(C(=O)O)nc3Cl)CC2)NC(c2nccs2)=NC1c1ccc(F)c(F)c1Cl (single isomer, unassigned) [II-42-B, 6-Chloro-5-(4-(6-(2-chloro-3,4-difluorophenyl)-5-(ethoxycarbonyl)-2-(thiazol-2-yl)-3,6-dihydropyrimidin-4-yl)piperidin-1-yl)picolinic Acid]	56 nM	2570 nM
CCOC(=O)C1=C(C2CCN(c3ccc(C(=O)O)cn3)CC2)NC(c2nccs2)=NC1c1ccc(F)c(F)c1Cl (single isomer, unassigned) [II-43-B, 6-(4-(6-(2-Chloro-3,4-difluorophenyl)-5-(ethoxycarbonyl)-2-(thiazol-2-yl)-3,6-dihydropyrimidin-4-yl)piperidin-1-yl)nicotinic Acid]	16 nM	11400 nM
CCOC(=O)C1=C(C2CCN(c3cc(C(F)(F)F)c(C(=O)O)cn3)CC2)NC(c2nccs2)=NC1c1ccc(F)c(F)c1Cl (single isomer, unassigned) [II-44-B, 6-(4-(6-(2-Chloro-3,4-difluorophenyl)-5-(ethoxycarbonyl)-2-(thiazol-2-yl)-3,6-dihydropyrimidin-4-yl)piperidin-1-yl)-4-(trifluoromethyl)nicotinic Acid]	7.6 nM	4770 nM
CCOC(=O)C1=C(C2CCN(c3ncc(C(=O)O)cc3F)CC2)NC(c2nccs2)=NC1c1ccc(F)c(F)c1Cl (single isomer, unassigned) [II-45-B, 6-(4-(6-(2-Chloro-3,4-difluorophenyl)-5-(ethoxycarbonyl)-2-(thiazol-2-yl)-3,6-dihydropyrimidin-4-yl)piperidin-1-yl)-5-fluoronicotinic Acid]	8.7 nM	4430 nM
CCOC(=O)C1=C(C2CCN(c3cc(C)c(C(=O)O)nn3)CC2)NC(c2nccs2)=NC1c1ccc(F)c(F)c1Cl (single isomer, unassigned) [II-46-B, 6-(4-(6-(2-Chloro-3,4-difluorophenyl)-5-(ethoxycarbonyl)-2-(thiazol-2-yl)-3,6-dihydropyrimidin-4-yl)piperidin-1-yl)-4-methylpyridazine-3-carboxylic Acid]	100 nM	3670 nM
CCOC(=O)C1=C(C2CCN(c3cnc(OC)c(C(=O)O)n3)CC2)NC(c2nccs2)=NC1c1ccc(F)c(F)c1Cl (single isomer, unassigned) [II-47-B, 6-(4-(6-(2-chloro-3,4-difluorophenyl)-5-(ethoxycarbonyl)-2-(thiazol-2-yl)-3,6-dihydropyrimidin-4-yl)piperidin-1-yl)-3-methoxypyrazine-2-carboxylic Acid]	25 nM	11100 nM
CCOC(=O)C1=C(C2CCN(c3cnc(C)c(C(=O)O)n3)CC2)NC(c2nccs2)=NC1c1ccc(F)c(F)c1Cl (single isomer, unassigned) [II-48-B, 6-(4-(6-(2-chloro-3,4-difluorophenyl)-5-(ethoxycarbonyl)-2-(thiazol-2-yl)-3,6-dihydropyrimidin-4-yl)piperidin-1-yl)-3-methylpyrazine-2-carboxylic Acid]	79 nM	12900 nM
CCOC(=O)C1=C(C2CCN(c3cnc(C(=O)O)c(C)n3)CC2)NC(c2nccs2)=NC1c1ccc(F)c(F)c1Cl (single isomer, unassigned) [II-49-B, 5-(4-(6-(2-Chloro-3,4-difluorophenyl)-5-(ethoxycarbonyl)-2-(thiazol-2-yl)-3,6-dihydropyrimidin-4-yl)piperidin-1-yl)-3-methylpyrazine-2-carboxylic Acid]	50 nM	110 nM
CCOC(=O)C1=C(C2CCN(c3ncc(C(=O)O)o3)CC2)NC(c2nccs2)=NC1c1ccc(F)c(F)c1Cl (single isomer, unassigned) [II-50-B, 2-(4-(6-(2-Chloro-3,4-difluorophenyl)-5-(ethoxycarbonyl)-2-(thiazol-2-yl)-3,6-dihydropyrimidin-4-yl)piperidin-1-yl)oxazole-5-carboxylic Acid]	26 nM	19000 nM
CCOC(=O)C1=C(C2CCN(c3cnc(C(=O)O)cn3)CC2)NC(c2nccs2)=NC1c1ccc(F)c(F)c1Cl (single isomer, unassigned) [II-51-B, 5-(4-(6-(2-Chloro-3,4-difluorophenyl)-5-(ethoxycarbonyl)-2-(thiazol-2-yl)-3,6-dihydropyrimidin-4-yl)piperidin-1-yl)pyrazine-2-carboxylic Acid]	< 4.6 nM	670 nM
CCOC(=O)C1=C(C2CCN(c3cc(C(=O)O)nc(OC)n3)CC2)NC(c2nccs2)=NC1c1ccc(F)c(F)c1Cl (single isomer, unassigned) [II-52-B, 6-(4-(6-(2-Chloro-3,4-difluorophenyl)-5-(ethoxycarbonyl)-2-(thiazol-2-yl)-3,6-dihydropyrimidin-4-yl)piperidin-1-yl)-2-methoxypyrimidine-4-carboxylic Acid]	51 nM	3700 nM
CCOC(=O)C1=C(C2CCN(c3cc(C(=O)O)nc(C)n3)CC2)NC(c2nccs2)=NC1c1ccc(F)c(F)c1Cl (single isomer, unassigned) [II-53-B, 6-(4-(6-(2-Chloro-3,4-difluorophenyl)-5-(ethoxycarbonyl)-2-(thiazol-2-yl)-3,6-dihydropyrimidin-4-yl)piperidin-1-yl)-2-methylpyrimidine-4-carboxylic Acid]	98 nM	9050 nM
CCOC(=O)C1=C(C2CCN(c3cc(C(=O)O)ncn3)CC2)NC(c2nccs2)=NC1c1ccc(F)c(F)c1Cl (single isomer, unassigned) [II-54-B, 6-(4-(6-(2-Chloro-3,4-difluorophenyl)-5-(ethoxycarbonyl)-2-(thiazol-2-yl)-3,6-dihydropyrimidin-4-yl)piperidin-1-yl)pyrimidine-4-carboxylic Acid]	19 nM	10300 nM
CCOC(=O)C1=C(C2CCN(c3ncc([C@]4(O)C[C@@H](C(=O)O)C4)cn3)CC2)NC(c2nccs2)=NC1c1ccc(F)c(F)c1Cl (single isomer, unassigned) [II-55-B, (trans)-3-(2-(4-(6-(2-Chloro-3,4-difluorophenyl)-5-(ethoxycarbonyl)-2-(thiazol-2-yl)-3,6-dihydropyrimidin-4-yl)piperidin-1-yl)pyrimidin-5-yl)-3-hydroxycyclobutanecarboxylic Acid]	< 4.6 nM	7960 nM
CCOC(=O)C1=C(C2CCN(c3nc(C)c(C)c(C(=O)O)n3)CC2)NC(c2nccs2)=NC1c1ccc(F)c(F)c1Cl (single isomer, unassigned) [II-56-B, 2-(4-(6-(2-Chloro-3,4-difluorophenyl)-5-(ethoxycarbonyl)-2-(thiazol-2-yl)-3,6-dihydropyrimidin-4-yl)piperidin-1-yl)-5,6-dimethylpyrimidine-4-carboxylic Acid]	22 nM	5540 nM
